These results are taken from patent US20250114383A1, “ADMINISTRATION OF A P[…] BY I[…]” (RESET PHARMACEUTICALS, INC., priority 2022, published 2025).

Data set [1] in a line: Solubility assessment in excipients and vehicles. In kind it is physicochemical.
The nature of data set [2]: Two-compartment IV PK model fitted to published human bolus psilocybin IV data. The following applies: psilocin after 1 mg psilocybin IV, fitted estimate. On the procedure: All analysis was performed using the software R and RStudio, with models being defined using analytical and ODE solutions.
Systemic PK parameters were derived for published human bolus psilocybin IV data and human infusion simulations were performed over a range of doses to identify infusion regimens that achieved the target profile.
Human IV PK data for psilocin after psilocybin was administered was taken from Hasler et al. “Determination of psilocin and 4-hydroxyindole-3-acetic acid in plasma by HPLC-ECD and pharmacokinetic profiles of oral and intravenous psilocybin in man”. Pharm Acta Helv. 1997 June; 72(3):175-84. Model selection was performed by assessing visual fit to data and the respective model AIC's of a one compartment and two compartment IV PK model. These systemic human PK parameters were then used for human infusion simulations by simulating the PK profiles over a range of doses. The effect of two infusion rates, a faster followed by slower infusion rate was also investigated.
Pharm Acta Helv. 1997 June; 72(3):175-84. It is assumed that the generation of psilocin is instantaneous and complete once psilocybin is absorbed.
An IV two compartment model best described the IV data from FIG. 2. A two-compartment model gave a good description of the raw data capturing the Cmax and terminal phase well, FIG. 3. […]

For the molecule `CN(C)CCc1c[nH]c2cccc(O)c12` [psilocin, 4-hydroxy-N,N-dimethyltryptamine], the solubility entry in data set [1] (in DMSO and NMP) is on record as “good solubility”. Further, the “solubility as a function of pH” value in data set [1] (initial trials, 30 mg/g in aqueous vehicles) is “higher solubility at acidic pH”. In data set [2], the k12 is 0.176 min⁻¹ and the k21 was 0.0489 min⁻¹.
Take `CN(C)CCc1c[nH]c2cccc(OP(=O)(O)O)c12` [psilocybin, [3-(2-dimethylaminoethyl)-1H-indol-4-yl]dihydrogen phosphate]: in data set [1] (non-micronised, in all the excipients tested), the solubility entry is reported as “poor solubility”.
